# Measured values published in US9062014B2, “Crystalline forms of (R)-5-[3-chloro-4-(2,3-dihydroxy-propoxy)-benz[Z]ylidene]-2-([Z]-propylimino)-3-0-tolyl-thiazolidin-4-one” (ACTELION PHARMACEUTICALS LTD., priority 2008, dated 2015).
# Test: Hygroscopicity by gravimetric vapour sorption (GVS)
# Type: physicochemical
# Conditions: 25° C.; for Hygroscopicity classification according to the European Pharmacopea Technical Guide (1999 edition): mass change between 40% and 80% relative humidity, first adsorption scan; for mass gain: mass change between 40% relative humidity and 80% relative humidity in the first adsorption scan
# Experimental: Gravimetric Vapour Sorption (GVS)
# Sorption isotherms are obtained using a Hiden IGASorp moisture sorption analyser, controlled by CFRSorp software. The sample temperature is maintained at 25° C. by a Huber re-circulating water bath. The humidity is controlled by mixing streams of dry and wet nitrogen, with a total flow rate of 250 ml·min^−1. The relative humidity is measured by a calibrated Vaisala RH probe (dynamic range of 0-95% RH), located near the sample. The weight change of the sample as a function of % RH is constantly monitored by the microbalance (accuracy±0.001 mg).
# Typically 10-20 mg of sample is placed in a tared mesh stainless steel basket under ambient conditions. The sample is loaded and unloaded at 40% RH and 25° C. (typical room conditions).
# A moisture sorption isotherm is performed as outlined below (2 scans giving 1 complete cycle). The standard isotherm is performed at 25° C. at 10% RH intervals over a 0-90% RH range.
# The software uses a least squares minimisation procedure together with a model of the mass relaxation, to predict an asymptotic value. The measured mass relaxation value must be within 5% of that predicted by the software, before the next % RH value is selected. The minimum equilibration time is set to 1 hour and the maximum to 4 hours.
# Classification is done according to the European Pharmacopea Technical Guide (1999 edition) (e.g. slightly hygroscopic: increase in mass is less than 2% and equal to or greater than 0.2% mass/mass; hygroscopic: increase in mass is less than 15% and equal to or greater than 2% mass/mass). The mass change between 40% relative humidity and 80% relative humidity in the first adsorption scan is considered.
smiles,measurement,value
"CCC/N=C1\S/C(=C\c2ccc(OC[C@H](O)CO)c(Cl)c2)C(=O)N1c1ccccc1C [Amorphous, (R)-5-[3-chloro-4-(2,3-dihydroxy-propoxy)-benz[Z]ylidene]-2-([Z]-propylimino)-3-o-tolyl-thiazolidin-4-one]",Hygroscopicity classification according to the European Pharmacopea Technical Guide (1999 edition),Hygroscopic (hygroscopic: increase in mass is less than 15% and equal to or greater than 2% mass/mass)
same,mass gain,2.1%
"CCC/N=C1\S/C(=C\c2ccc(OC[C@H](O)CO)c(Cl)c2)C(=O)N1c1ccccc1C [Form A, (R)-5-[3-chloro-4-(2,3-dihydroxy-propoxy)-benz[Z]ylidene]-2-([Z]-propylimino)-3-o-tolyl-thiazolidin-4-one]",Hygroscopicity classification according to the European Pharmacopea Technical Guide (1999 edition),Non-hygroscopic
same,mass gain,< 0.2%
"CCC/N=C1\S/C(=C\c2ccc(OC[C@H](O)CO)c(Cl)c2)C(=O)N1c1ccccc1C [Form II, (R)-5-[3-chloro-4-(2,3-dihydroxy-propoxy)-benz[Z]ylidene]-2-([Z]-propylimino)-3-o-tolyl-thiazolidin-4-one]",Hygroscopicity classification according to the European Pharmacopea Technical Guide (1999 edition),Slightly hygroscopic (slightly hygroscopic: increase in mass is less than 2% and equal to or greater than 0.2% mass/mass)
same,mass gain,0.2%
"CCC/N=C1\S/C(=C\c2ccc(OC[C@H](O)CO)c(Cl)c2)C(=O)N1c1ccccc1C [Form C, (R)-5-[3-chloro-4-(2,3-dihydroxy-propoxy)-benz[Z]ylidene]-2-([Z]-propylimino)-3-o-tolyl-thiazolidin-4-one]",Hygroscopicity classification according to the European Pharmacopea Technical Guide (1999 edition),Non-hygroscopic
same,mass gain,< 0.2%
